Data on 4 molecules can be found in US8895242B2, “Single molecule nucleic acid nanoparticles” (The Regents of the University of California, priority 2009, dated 2014).

The subject of one data set is DNA nanoparticles. The data set is described as follows: Doxorubicin fluorescence quenching on DNA nanoparticles. To be noted: indicates doxorubicin binding to the particles. From the text:
With increasing concentration of Doxorubicin, the DNA nanoparticles become saturated and free Doxorubicin in solution can fluoresce.
The fluorescence of doxorubicin is quenched with the addition of DNA nanoparticles, indicating doxorubicin binding to the particles (FIG. 44).

For another data set, the system named is cells. Description: Doxorubicin toxicity to cells with and without untargeted DNA particles. The format is cell-based. How it is done: The IC50 was determined to be 0.1 μg of Doxo for […]. […] Targeted DNA particles may be selected or a targeting moiety added. (2) At the same time, DNA nanoparticles absorbed Doxo, which is good for our purpose of loading DNA with drugs (FIG. 45).

The test system of another data set is B16 melanoma. The data set is described as follows: Intra-tumoral injection into B16 melanoma, immunohistochemistry of immune cell recruitment. The format is in vivo, mice. How it is done:
FIG. 23 provides data relating to Hp-91(270 μg), pI:C (125 μg), or Pam3Cys (125 μg) injected into B16 melanoma and the mice were sacrificed 24 h after the injection. The tumor was embedded in OCT and frozen sections were stained for Mac 1 (macrophages), CD11c (DCs), and CD3 (T cells) by immuno-histochemistry. Pictures were taken in brightfield at 20×.
In certain subsets of breast tumors the presence of tumor-associated macrophages is associated with […]. Thus, in order to maximize the anti-tumor immune response we tested two TLR agonists; pI:C (TLR3 agonist) and Pam3Cys (TLR2 agonist), and our immunostimulatory peptides for their ability to recruit immune cells to the tumor. Hp-91, pI:C, or Pam3Cys were injected into B16 melanoma, the mice were sacrificed 24 h after the injection and the tumor was frozen and sections stained for the indicated markers. […] This is a very promising result as Hp-91 will not only contribute to the recruitment of DCs, but also mature the arriving DCs. Thus in the context of antigen release by concurrent local cytotoxic therapy, we expect to create a very favorable environment for the uptake of tumor antigen by DCs and their subsequent activation. In addition, CD8 T cells after being primed in the draining lymph nodes are expected to be recruited in higher numbers to the tumor site via the peptide leading to a strong immune response and tumor killing.

For data set [1], the system named is pancreatic cancer cell line panc02. The data set is described as follows: Flow cytometry binding of DNA nanoparticle clones to panc02. The format is cell-based, mouse. As to conditions: fluorescently labeled. From the text:
FIGS. 57A and 57B summarizes the results of the selection of pancreatic cancer cell line panc02 targeting particles. The mouse pancreatic lines panc02 was panned with a single module DNA nanoparticle library. After the 3rd and 4th round, the selected pool was fluorescently labeled and tested on the target cells by flow cytometry (FIG. 57A). A shift indicating enrichment of binding clones was observed. After the 5th and 6th round, clones were generated from the selected pool and sequenced (TABLE 6). 10 of the 12 sequenced clones contained a specific sequence motif: AATGGGGCG (SEQ ID NO:12). In two of the clones the motif appears in the same frame (C45 and C58). Two independent clones for each we recovered with the sequence of clone 40 and 46.
A general note: Flow cytometry measures light scatter and fluorescence of single cells or particles in a stream.

The mark [2] stands for this setting: Hp-91 270 μg, pI:C 125 μg, Pam3Cys 125 μg, 24 h after injection.
[3] abbreviates: higher dose 500 μg, data not shown.

As to `COc1cccc2c1C(=O)c1c(O)c3c(c(O)c1C2=O)C[C@@](O)(C(=O)CO)C[C@@H]3O[C@H]1C[C@H](N)[C@H](O)[C@H](C)O1` [Doxo, Doxorubicin], the “doxorubicin fluorescence on addition of DNA nanoparticles” value with DNA nanoparticles (listed as Doxorubicin) is given as “fluorescence is quenched”; in the data set on DNA nanoparticles (listed as doxorubicin) it was “quenched”. For the same molecule, the IC50 in the data set on cells is 0.1 µg.
As to `CCCCCCCCCCCCCCCC(=O)N[C@@H](CSC[C@@H](COC(=O)CCCCCCCCCCCCCCC)OC(=O)CCCCCCCCCCCCCCC)C(=O)O` [Pam3Cys], in the data set with B16 melanoma (setting [2]), the “recruitment of DCs (CD11c+) into the tumor” value is “only Hp-91”, the “recruitment of T cells (CD3+) into the tumor” value was “only Hp-91” and the “recruitment of macrophages into the tumor” value is given as “caused recruitment of macrophages”. Also, in the data set on B16 melanoma (setting [3]), the “DC recruitment into the tumor” value is “no T cell and DC recruitment”; the “T cell recruitment into the tumor” value is “no T cell”.

B1: C50: panc02-selection clone lacking the … motif, SEQ ID NO:11 (nucleic acid)
DNA: TGCTTTTTGGAACTCCTGCTCAACTTGTGTCCTCTTGAAAGAGTCGGTCATACCTATAAGAATACTTTTATACAGCCAAAGGTGACGTTGAGTTGGATCC
modifications: DNA, backbone and methylation of C not given here; rolling circle concatemer folded into DNA nanoparticle
As to B1, the “binding to panc02” value in data set [1] is “do not”.

B2: C21: panc02-selection clone lacking the … motif, SEQ ID NO:10 (nucleic acid)
DNA: TGCTTTTTGGAACTCCTGCTAGACGTTAGATGTATCTGACCTTACGACTTCAACTTCCTTCTAAATCTGCCCACAACGATGGTGACGTTGAGTTGGATCC
modifications: DNA, backbone and methylation of C not given here; rolling circle concatemer folded into DNA nanoparticle
In the case of B2, the “binding to panc02” value in data set [1] is “do not”.
